{"source": "paper PMC9845330", "about": "(Communications Biology, 2023)", "system": "subcutaneous H2009 tumors", "test": "Tumor homing by near infrared imaging", "assay_type": "in vivo, mouse", "conditions": "for Total Radiant Efficiency: Mean", "experimental": "Use of MGS4 as a delivery agent relies on its ability to target a tumor in an animal. MGS4_V8 and MGS4_V6 (control) were conjugated directly to Alexa Fluor 750. Each conjugate was injected intravenously into immunocompromised mice bearing subcutaneous H2009 tumors, and accumulation of the peptide was measured by near infrared imaging (Fig. 5a). MGS4_V8 tumor homing is observed at 12 h and 85% of that signal is maintained at 24 h. MGS4_V8 signal remains at 48 and 72 h, indicating persistent retention of the dye in the tumor. At all times, MGS4_V8 has 25-40-fold increased signal compared to the control peptide. […] Tumors were fixed in paraformaldehyde followed by whole tumor imaging on a LI-COR® Odyssey (Fig. 5b). A clear visual difference exists between tumors isolated from mice treated with MGS4_V8 compared to those treated with MGS4_V6 control or untreated. Quantification of fluorescence results in a 240-fold higher signal in the MGS4_V8 treated tumors compared to the MGS4_V6 group. Similar results were obtained when subcutaneous H1299 tumors were established in mice (Supplemental Fig. 5).\nFig. 5 MGS4_V8 homes to xenograft tumor after systemic delivery and can deliver saporin resulting in reduced tumor growth. a H2009 tumor bearing nude mice (N = 4) were injected I.V. with MGS4_V8 or MGS4_V6 conjugated to NIR dye Alexa Fluor 750. At 12, 24, 48, and 72 h postinjection, mice were anesthetized and imaged on an IVIS® (Perkin Elmer) to measure total radiant efficiency in each tumor. MGS4_V8 accumulates in tumor 25–39 fold better than control peptide, MGS4_V6. […] Ex vivo NIR imaging of the tumors at the end of the experiment mirrors the data observed in the living animals. […] Data for individual animals is included in Supplementary Table 8. b Excised tumors from the previous experiment were fixed in PBS + 4% formaldehyde and then imaged again together on a LI-COR® Odyssey. Arbitrary fluorescence units (AFU) were determined for each tumor and the average and SEM are shown below the image. The mean fluorescent intensity is 240-fold greater for MGS4_V8-Alexa Fluor 750 conjugate than the MGS4_V6 control conjugate. c Saporin was conjugated to either targeting MGS4_V8 or nontargeting MGS4_V6 and 7.5 µg of the conjugate was injected I.V. into mice bearing subcutaneous tumors. Animals were dosed 2 times per week for 2.5 weeks (indicated by arrows). Tumors were measured every other day. MGS4_V8-saporin clearly slows tumor growth, while nontargeted saporin has no effect compared to untreated animals. Error bars represent SEM, *p-value < 0.05, **p-value < 0.01, ***p-value < 0.001, ****p-value < 0.0001 (two-way ANOVA). d Tumor size (mm3) are shown for individual animals at days 0, 6, 12, and 18. Mean value is represented by the horizontal line and the error bars represent standard error. There is no statistical difference between MGS4_V6-Saporin and untreated at any day. At days 12 and 18 MGS4_V8-Saporin is statistically different than untreated (p-values 0.0099 and 0.0029, respectively) and MGS4_V6-Saporin (p-values 0.0069 and 0.0009, respectively). TEXT PRINTED IN THE PICTURE: (b) MGS4_V8: AFU: 3.3e6 ± 1.1e5; 240-fold | (b) MGS4_V6: AFU: 1.2e4 ± 2.7e3 DOUBTS OF THE COPYIST ABOUT THIS PICTURE: Panel b, 240-fold: printed under a line spanning MGS4_V8 and MGS4_V6; assigned to MGS4_V8 / Panel b, Untreated column (AFU: 1.6e3 ± 4.3e2) left out because it is a control without a substance\nAnimal experiments were approved by SRI International’s Institutional Animal Care and Use committee (Animal Welfare Assurance Number A3025-01, protocol 14008). H2009 cells (10^6) or H1299 cells (10^6) were implanted subcutaneously on the flank of female Nu/Nu mice (Jackson Laboratory, Bar Harbor, ME). When tumors reached 100 mm^3, in vivo experiments were initiated. For imaging, the indicated peptides were conjugated directly to Alexa Fluor 750 near-infrared dye (Supplemental Fig. 1). Four animals per group were used. […]", "note": "Entries after “also recorded” stand apart in the source; their conditions may differ. Non-standard residues stand in square brackets, D forms with d. Residues, ends and D or L forms follow the SMILES beside them. *: point of attachment. X1 = O=C(CCCC[C@@H]1SC[C@@H]2NC(=O)N[C@@H]21)NCCCOCCOCCOCCCN*; PEG12 = NCCOCCOCCOCCOCCOCCOCCOCCOCCOCCOCCOCCOCCC(=O)O"}
{"compound": "CC(=O)N[C@@H](Cc1ccccc1)C(=O)N[C@@H](Cc1c[nH]cn1)C(=O)N[C@@H](C)C(=O)N[C@H](C(=O)N1CCC[C@H]1C(=O)N[C@@H](CCC(N)=O)C(=O)N[C@@H](CO)C(=O)N[C@@H](Cc1ccccc1)C(=O)N[C@@H](Cc1ccc(O)cc1)C(=O)N[C@H](C(=O)NCCOCCOCCOCCOCCOCCOCCOCCOCCOCCOCCOCCOCCC(=O)N[C@@H](CCC(=O)NCCCOCCOCCOCCCNC(=O)CCCC[C@@H]1SC[C@@H]2NC(=O)N[C@@H]21)C(N)=O)[C@@H](C)O)C(C)C", "note": "[MGS4_V8] (Ac-FHAVPQSFYT[PEG12]E(X1)-NH2)", "values": [{"measurement": "Total Radiant Efficiency", "setting": "12 h", "result": "1.58e+010"}, {"measurement": "tumor signal maintained relative to 12 h", "setting": "24 h, Alexa Fluor 750 conjugate i.v.", "result": 85, "unit": "%"}, {"measurement": "Total Radiant Efficiency", "setting": "24 h", "result": "1.33e+010"}, {"measurement": "Total Radiant Efficiency", "setting": "48 h", "result": "7.91e+009"}, {"measurement": "Total Radiant Efficiency", "setting": "72 h (first line)", "result": "7.00e+009"}, {"measurement": "Total Radiant Efficiency", "setting": "72 h (second line)", "result": "2.02e+010"}, {"measurement": "fold fluorescence versus MGS4_V6 group", "setting": "excised fixed tumors, 72 h, LI-COR Odyssey", "result": 240, "unit": "fold"}]}
{"compound": "*HAVPQSFYT** [MGS4_V6]", "values": [{"measurement": "Total Radiant Efficiency", "setting": "12 h", "result": "3.94e+008"}, {"measurement": "Total Radiant Efficiency", "setting": "24 h", "result": "3.44e+008"}, {"measurement": "Total Radiant Efficiency", "setting": "48 h", "result": "2.64e+008"}, {"measurement": "Total Radiant Efficiency", "setting": "72 h (first line)", "result": "2.80e+008"}, {"measurement": "Total Radiant Efficiency", "setting": "72 h (second line)", "result": "2.00e+009"}, {"measurement": "tumor signal versus untreated tumors", "setting": "Alexa Fluor 750 conjugate", "result": "no statistically significant difference; also recorded: statistically no different than untreated tumors"}]}
